Source: paper PMC8998618, “A Pharmacokinetic and Metabolism Study of the TRPC6 Inhibitor SH045 in Mice by LC-MS/MS” (International Journal of Molecular Sciences, 2022)

What was measured:
[1] = time-dependent metabolization (stability) in HLM and IVIVE of hepatic clearance; format: in vitro ADME, human
Text: (§1) In the widely used concept of the “well-stirred” model, liver represents a single uniform compartment. It is further assumed that the concentration of unbound SH045 leaving the liver is in equilibrium with its unbound concentration in hepatocytes (detailed calculation in Supplementary Materials SM8, summarized values in SR4). Briefly, microsomal intrinsic clearance was converted to hepatic clearance: CLhep = Q × fu × CLint/Q + (fu × CLint), where fu is the unbound fraction of SH045 in blood and Q is the hepatic blood flow in mice.
(§2) For this purpose, remaining concentrations of SH045 in microsomes were determined to calculate the intrinsic microsomal clearance CLint,micr, the intrinsic clearance CLint, equal to the maximum enzyme activity of liver and for in vitro-in vivo exploration of hepatic clearance CLhep in mouse and human using the well-stirred model. The algorithm for these calculations is given in detail in the Supplementary Materials SM8. […]
(§3) All microsome incubations were stopped with 1 mL ice -cold ACN containing 5 µg/mL IS, vortexed for 1 min and cooled at -20 °C for 10 min. […]
2 µL SH045 (final concentration 0.5 – 100 µM, in triplicate), 12.5 µL HLM or MLM (finally 0.5 mg/mL protein) and 460.5 µL DPBS were vortexed and preincubated 37 °C for 5 min. The reaction was initiated by addition of 25 µL analogously pre-incubated β-NADPH (finally: 1 mM). […]
(§4) Testosterone (10 µM in ACN/DPBS 2/3, v/v) instead of SH045 was used as positive control and analyzed by an appropriate HPLC method with UV detection.
(§5) Negative controls contained either no NADPH, no MLM or HLM or none of them. […]
Mean maximum rate vmax and Michaelis-Menten constant Km were calculated using Lineweaver-Burk transformation. From Km an appropriate drug concentration of 2 µM was derived as prerequisite for experimental in vitro determination of t1/2 required for further exploration of clearance.
(§6) For this purpose, microsomes were incubated as described above with 2 µM SH045 for indicated time intervals up to 30 min. The remaining concentrations of SH045 were determined to calculate the intrinsic microsomal clearance CLint,micr the intrinsic clearance CLint, equal to the maximum enzyme activity of liver and for in vitro-in vivo exploration of hepatic clearance CLhep in mouse and human using the “well-stirred” model [6].
(§7) SM7 Identification of metabolism pathways and metabolites of SH045 in MLM and HLM To determine possible metabolism pathways of SH045 in MLM and HLM, an in vitro inhibition approach was performed with CYP-isoform specific inhibitors (final concentration): ciprofloxacin (CYP1A2; 150 µM), pilocarpine (CYP2A6; 50 µM), ticlopidine (CYP2B6; 5 µM), quercetin (CYP2C8; 2 µM), sulfaphenazole (CYP2C9; 10 µM), fluvoxamine (CYP2C19; 10 µM), quinidine (CYP2D6; 10 µM), 4-methyl pyrazole (CYP2E1; 100 µM) and ketoconazole (CYP3A4; 1 µM) [7, 8]. The inhibitors were dissolved in DPBS and appropriate methanol, the organic solvents not […]
(§8) SH045 (2 µM) was pre-incubated with MLM or HLM (0.5 mg/mL) and the specific inhibitor for 5 min at 37 °C in DPBS.
Ticlopidine, a time-dependent inhibitor was pre-incubated for 15 min [9]. Incubations were performed in triplicate with NADPH (1 mM) in a final volume of 500 µL for 2 min and 10 min with pre-incubated MLM and HLM, respectively, terminated with 1 mL ice-cold ACN and processed as described above for LC-MS/MS. A sample without any inhibitor served as a positive control. […]

[2] = time-dependent metabolization (stability) in MLM and IVIVE of hepatic clearance; format: in vitro ADME, mouse
Text: as §1, §2, §3
SM6 Metabolization studies in MLM and HLM and calculation of hepatic clearance For determination of vmax and Km of the NADPH-dependent microsomal depletion of SH045, the following incubations were performed for MLM and HLM, respectively. 2 µL SH045 (final concentration 0.5 – 100 µM, in triplicate), 12.5 µL HLM or MLM (finally 0.5 mg/mL protein) and 460.5 µL DPBS were vortexed and preincubated 37 °C for 5 min. The reaction was initiated by addition of 25 µL analogously pre-incubated β-NADPH (finally: 1 mM).
After gentle shaking at 37 °C and 300 rpm for 10 min, incubations were terminated and samples prepared as described […]
as §4, §5
Menten constant Km were calculated using Lineweaver-Burk transformation. From Km an appropriate drug concentration of 2 µM was derived as prerequisite for experimental in vitro determination of t1/2 required for further exploration of clearance.
as §6, §7, §8
Ticlopidine, a time-dependent inhibitor was pre-incubated for 15 min [9]. Incubations were performed in triplicate with NADPH (1 mM) in a final volume of 500 µL for 2 min and 10 min with pre-incubated MLM and HLM, respectively, terminated with 1 mL ice-cold ACN and processed as described above for LC-MS/MS. A sample without any inhibitor served as a positive control. Incubations with an equal volume of DMSO instead of SH045 and samples without NADPH, MLM or HLM or both, respectively, served as negative controls.
To explore metabolites of SH045 formed by microsomes, D PBS, alamethicin (25 µg/mL) [10] and MLM or HLM (1.0 […]

CLint scaled at 2 µM ([1]; human, liver microsomes, scaled from CLint,micr): 334 mL/min/kg
CLhep ([1]; human, predicted by well-stirred model, Q 21 mL/min/kg): 0.96 mL/min/kg
CLint ([1]; human, scaled from CLint,micr): 334.6 mL/min/kg
half-life at 2 µM ([1]; pH 7.4, human liver microsomes 0.5 mg/mL, 2 µM SH045, NADPH): 4.85 min
microsomal CLint at 2 µM ([1]; pH 7.4, human liver microsomes, read-out: CLint, micr): 286 µL/min/mg
microsomal CLint at 2 µM ([2]; CD-1, mouse, liver microsomes, mouse liver microsomes, read-out: CLint, micr): 1170 µL/min/mg
CLint scaled at 2 µM ([2]; CD-1, mouse, liver microsomes, mouse, scaled from CLint,micr): 4590 mL/min/kg
half-life at 2 µM ([2]; male, CD-1, pH 7.4, mouse liver microsomes 0.5 mg/mL, 2 µM SH045, NADPH): 1.18 min
CLint, micr ([2]; mouse liver microsomes): 1173.6 µL/min/mg
CLhep ([2]; mouse, predicted by well-stirred model, fu 0.3%, Q 90 mL/min/kg): 11.95 mL/min/kg
CLint ([2]; mouse, scaled from CLint,micr): 4594.6 mL/min/kg
Structure (SMILES): C=C[C@@](C)(O)CC[C@H]1C(=C)C[C@H](OC(=O)NC)[C@H]2C(C)(C)CCC[C@]12C [SH045, (1S,4S,4aR,8aS)-4-((S)-3-Hydroxy-3-methylpent-4-en-1-yl)-4a,8,8-trimethyl-3-methylenedecahydronaphthalen-1-yl methylcarbamate]
